In publication PMC4503722, “Novel Phenotypic Outcomes Identified for a Public Collection of Approved Drugs from a Publicly Accessible Panel of Assays” (PLoS ONE, 2015):
Where two headings read alike, the source gives them in different places.

Key:
[1] = test system: endothelial tube formation in co-cultures of ECFCs and ADSCs treated with VEGF; assay: cells; format: cell-based, human; details: Homo sapiens
HCT116 = assay: cells; format: cell-based; details: for IC50: Homo sapiens
Colo320 = assay: cells; format: cell-based; details: for IC50: Homo sapiens
[2] = test system: ECFC/ADSC co-culture cell nuclei number; details: human
hKDR = target: T1, hKDR (Homo sapiens, UniProt P35968); assay: Cerep LANCE kinase assay hKDR (S1 assay 32); format: biochemical; details: kinase assay; read-out: KDR
T1 construct: purchased Cerep (LANCE kinase assay platform, contract assay)

[3] = test system: nuclear β-catenin in C2C12 cells; assay: cells; format: cell-based; details: Mus musculus
hp70S6K1 (RPS6KB1) = target: T2, hp70S6K1 (RPS6KB1) (Homo sapiens, UniProt P23443); assay: Cerep LANCE kinase assay hp70S6K1 (S1 assay 31); format: biochemical; details: kinase assay; read-out: p70S6K1
T2 construct: purchased Cerep (LANCE kinase assay platform, contract assay)

hFLT3 = target: T3, hFLT3 (Homo sapiens, UniProt P36888); assay: Cerep LANCE kinase assay hFLT3 (S1 assay 35); format: biochemical; details: kinase assay; read-out: FLT3
T3 construct: purchased Cerep (LANCE kinase assay platform, contract assay)

[4] = test system: HCT116 cells treated with a GSK3β inhibitor; assay: cells; format: cell-based; details: Homo sapiens
DLD-1 = assay: cells; format: cell-based; details: for IC50: Homo sapiens
INS-1E cells [5] = assay: cells; format: cell-based, rat
NCI-H716 cells = assay: cells; format: cell-based, Human; details: for EC50: Homo sapiens
hGSK3b = target: T4, hGSK3b (Homo sapiens, UniProt P49841); assay: Cerep LANCE kinase assay hGSK3b (S1 assay 34); format: biochemical; details: kinase assay; read-out: GSK3b
T4 construct: purchased Cerep (LANCE kinase assay platform, contract assay)

HeLa cells = assay: cells; format: cell-based; details: for EC50: Homo sapiens, HeLa, read-out: CellCycle G2/M
hJAK2 = target: T5, hJAK2 (Homo sapiens, UniProt O60674); assay: Cerep LANCE kinase assay hJAK2 (S1 assay 33); format: biochemical; details: kinase assay; read-out: JAK2
T5 construct: purchased Cerep (LANCE kinase assay platform, contract assay)

[6] = test system: panel of 7 colon cancer cell lines; assay: KRAS/Wnt synthetic lethal module: selectivity ratios across the colon cancer cell line panel (sub-modules); format: cell-based
HT-29 = assay: cells; format: cell-based; details: for IC50: Homo sapiens
RKO = assay: cells; format: cell-based; details: for IC50: Homo sapiens, RKO
SNU-C1 = assay: cells; format: cell-based; details: for IC50: Homo sapiens
SW480 = assay: cells; format: cell-based; details: for IC50: Homo sapiens
[7] = FAERS, ref [45], cited from earlier work; for Adjusted Z-Score: Drug A with vs without methotrexate; for # of Specific AE Occurrence With Drug A With Drug B: with methotrexate; for # of Specific AE Occurrence With Drug A Without Drug B: without methotrexate
INS-1E cells [8] = format: cell-based, rat; details: assay number 9; 0.1 mM glucose
[9] = test system: tonic K+ channel activity in INS-1E cells; assay: cells; format: cell-based, rat; details: for 0.1mMGluc_INS1E FluxOR IC50/EC50: assay number 10, 0.1 mM glucose
SUR2/Kir6.2 = details: read-out: SUR2/Kir6.2 inhibition IC50; cited from earlier work
STC-1 cell line = format: cell-based, mouse; details: assay number 13
[10] = HCT-116, 72 h, read-out: HCT-116 viab. IC50
[11] = HCT-116, 72 h, read-out: HCT-116 (GSK3β) viab. IC50
[12] = DLD-1, 72 h, read-out: DLD-1 viab. IC50
[13] = Rattus norvegicus, INS-1E, read-out: Ins. sec. EC50
[14] = NCI-H716, read-out: GLP1 sec. EC50
[15] = SW480, 72 h, read-out: SW480 viab. IC50
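For 5mMGluc INS1E SecretionMod IC50/EC50 in this document: secreted insulin quantified by homogeneous immunoassay.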

T2 sequence (P23443 whole entry): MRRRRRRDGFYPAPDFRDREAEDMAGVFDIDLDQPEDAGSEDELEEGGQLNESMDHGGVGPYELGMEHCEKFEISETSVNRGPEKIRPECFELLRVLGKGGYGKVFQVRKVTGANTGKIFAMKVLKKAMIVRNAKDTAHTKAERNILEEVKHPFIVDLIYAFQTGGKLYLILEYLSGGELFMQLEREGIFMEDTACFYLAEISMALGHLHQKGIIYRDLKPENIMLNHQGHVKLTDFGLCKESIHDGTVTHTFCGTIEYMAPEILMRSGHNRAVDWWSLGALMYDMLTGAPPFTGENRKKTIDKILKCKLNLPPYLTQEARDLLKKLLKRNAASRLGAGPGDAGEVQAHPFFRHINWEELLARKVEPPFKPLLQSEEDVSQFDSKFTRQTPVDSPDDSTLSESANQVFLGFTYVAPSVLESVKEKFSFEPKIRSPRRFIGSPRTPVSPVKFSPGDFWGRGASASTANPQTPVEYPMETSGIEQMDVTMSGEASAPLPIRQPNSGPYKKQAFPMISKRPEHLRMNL
T5 sequence (O60674 whole entry): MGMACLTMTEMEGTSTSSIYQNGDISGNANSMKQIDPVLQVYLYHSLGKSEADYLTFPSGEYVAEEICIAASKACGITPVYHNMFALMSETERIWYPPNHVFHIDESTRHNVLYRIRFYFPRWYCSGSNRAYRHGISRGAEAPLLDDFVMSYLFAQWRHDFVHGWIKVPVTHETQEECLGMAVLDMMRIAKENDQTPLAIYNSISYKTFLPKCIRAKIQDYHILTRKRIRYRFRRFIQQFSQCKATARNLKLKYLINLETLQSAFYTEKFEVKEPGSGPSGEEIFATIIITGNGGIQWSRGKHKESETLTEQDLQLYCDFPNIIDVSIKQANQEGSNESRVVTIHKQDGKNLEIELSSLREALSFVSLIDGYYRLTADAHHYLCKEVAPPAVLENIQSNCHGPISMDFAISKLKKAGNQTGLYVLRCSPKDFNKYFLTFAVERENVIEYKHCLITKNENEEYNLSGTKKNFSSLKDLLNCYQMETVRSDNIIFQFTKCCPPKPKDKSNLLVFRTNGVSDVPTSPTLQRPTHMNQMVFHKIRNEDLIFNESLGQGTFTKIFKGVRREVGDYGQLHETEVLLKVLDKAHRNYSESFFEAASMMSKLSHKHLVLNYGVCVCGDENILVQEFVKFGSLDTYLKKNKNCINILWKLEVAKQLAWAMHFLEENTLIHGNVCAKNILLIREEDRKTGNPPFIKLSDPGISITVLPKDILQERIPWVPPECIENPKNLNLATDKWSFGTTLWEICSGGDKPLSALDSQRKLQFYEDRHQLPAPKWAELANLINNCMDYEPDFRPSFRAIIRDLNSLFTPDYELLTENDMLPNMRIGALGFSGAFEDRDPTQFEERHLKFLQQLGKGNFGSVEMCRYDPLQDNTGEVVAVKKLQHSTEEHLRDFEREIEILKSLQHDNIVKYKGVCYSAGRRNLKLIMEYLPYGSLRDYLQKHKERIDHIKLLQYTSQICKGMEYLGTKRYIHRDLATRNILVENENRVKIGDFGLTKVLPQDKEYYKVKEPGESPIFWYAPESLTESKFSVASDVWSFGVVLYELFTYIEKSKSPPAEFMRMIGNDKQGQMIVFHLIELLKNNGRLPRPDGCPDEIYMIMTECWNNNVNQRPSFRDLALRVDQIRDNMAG
T4 sequence (P49841 whole entry): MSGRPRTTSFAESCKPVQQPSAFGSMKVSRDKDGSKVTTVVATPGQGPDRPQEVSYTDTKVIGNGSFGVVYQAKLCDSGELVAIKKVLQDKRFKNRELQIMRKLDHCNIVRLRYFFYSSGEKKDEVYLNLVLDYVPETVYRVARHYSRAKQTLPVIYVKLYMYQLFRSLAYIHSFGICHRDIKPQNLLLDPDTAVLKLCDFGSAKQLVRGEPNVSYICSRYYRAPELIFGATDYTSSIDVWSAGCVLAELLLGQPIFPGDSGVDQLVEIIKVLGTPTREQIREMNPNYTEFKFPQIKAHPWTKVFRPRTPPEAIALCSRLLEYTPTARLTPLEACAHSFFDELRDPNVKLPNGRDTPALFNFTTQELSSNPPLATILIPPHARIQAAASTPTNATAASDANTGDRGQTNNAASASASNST
T3 sequence (P36888 27-993): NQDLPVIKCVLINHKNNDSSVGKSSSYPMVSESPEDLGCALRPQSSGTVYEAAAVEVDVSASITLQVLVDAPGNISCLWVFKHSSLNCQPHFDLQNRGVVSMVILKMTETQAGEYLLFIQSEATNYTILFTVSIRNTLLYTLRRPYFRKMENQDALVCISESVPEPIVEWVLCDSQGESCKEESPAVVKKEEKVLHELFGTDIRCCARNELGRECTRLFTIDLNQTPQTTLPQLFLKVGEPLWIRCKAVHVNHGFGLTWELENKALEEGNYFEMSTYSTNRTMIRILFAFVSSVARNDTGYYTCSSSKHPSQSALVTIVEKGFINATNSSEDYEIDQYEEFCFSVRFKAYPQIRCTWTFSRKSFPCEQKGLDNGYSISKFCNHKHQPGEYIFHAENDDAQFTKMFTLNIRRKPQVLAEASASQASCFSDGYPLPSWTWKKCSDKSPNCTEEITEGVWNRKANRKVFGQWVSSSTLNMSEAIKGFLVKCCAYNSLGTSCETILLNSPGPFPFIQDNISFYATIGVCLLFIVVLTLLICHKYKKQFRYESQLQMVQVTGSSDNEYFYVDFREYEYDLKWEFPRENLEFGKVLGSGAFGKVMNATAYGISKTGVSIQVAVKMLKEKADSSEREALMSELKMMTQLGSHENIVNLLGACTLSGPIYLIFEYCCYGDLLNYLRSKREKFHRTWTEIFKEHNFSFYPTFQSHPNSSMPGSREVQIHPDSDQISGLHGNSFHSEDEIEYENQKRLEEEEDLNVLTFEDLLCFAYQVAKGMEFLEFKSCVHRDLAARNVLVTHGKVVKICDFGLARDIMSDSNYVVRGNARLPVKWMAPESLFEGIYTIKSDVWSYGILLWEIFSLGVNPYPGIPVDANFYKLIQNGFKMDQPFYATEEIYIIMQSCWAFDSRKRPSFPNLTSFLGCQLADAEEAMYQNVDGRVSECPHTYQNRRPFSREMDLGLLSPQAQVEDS
T1 sequence (P35968 20-1356): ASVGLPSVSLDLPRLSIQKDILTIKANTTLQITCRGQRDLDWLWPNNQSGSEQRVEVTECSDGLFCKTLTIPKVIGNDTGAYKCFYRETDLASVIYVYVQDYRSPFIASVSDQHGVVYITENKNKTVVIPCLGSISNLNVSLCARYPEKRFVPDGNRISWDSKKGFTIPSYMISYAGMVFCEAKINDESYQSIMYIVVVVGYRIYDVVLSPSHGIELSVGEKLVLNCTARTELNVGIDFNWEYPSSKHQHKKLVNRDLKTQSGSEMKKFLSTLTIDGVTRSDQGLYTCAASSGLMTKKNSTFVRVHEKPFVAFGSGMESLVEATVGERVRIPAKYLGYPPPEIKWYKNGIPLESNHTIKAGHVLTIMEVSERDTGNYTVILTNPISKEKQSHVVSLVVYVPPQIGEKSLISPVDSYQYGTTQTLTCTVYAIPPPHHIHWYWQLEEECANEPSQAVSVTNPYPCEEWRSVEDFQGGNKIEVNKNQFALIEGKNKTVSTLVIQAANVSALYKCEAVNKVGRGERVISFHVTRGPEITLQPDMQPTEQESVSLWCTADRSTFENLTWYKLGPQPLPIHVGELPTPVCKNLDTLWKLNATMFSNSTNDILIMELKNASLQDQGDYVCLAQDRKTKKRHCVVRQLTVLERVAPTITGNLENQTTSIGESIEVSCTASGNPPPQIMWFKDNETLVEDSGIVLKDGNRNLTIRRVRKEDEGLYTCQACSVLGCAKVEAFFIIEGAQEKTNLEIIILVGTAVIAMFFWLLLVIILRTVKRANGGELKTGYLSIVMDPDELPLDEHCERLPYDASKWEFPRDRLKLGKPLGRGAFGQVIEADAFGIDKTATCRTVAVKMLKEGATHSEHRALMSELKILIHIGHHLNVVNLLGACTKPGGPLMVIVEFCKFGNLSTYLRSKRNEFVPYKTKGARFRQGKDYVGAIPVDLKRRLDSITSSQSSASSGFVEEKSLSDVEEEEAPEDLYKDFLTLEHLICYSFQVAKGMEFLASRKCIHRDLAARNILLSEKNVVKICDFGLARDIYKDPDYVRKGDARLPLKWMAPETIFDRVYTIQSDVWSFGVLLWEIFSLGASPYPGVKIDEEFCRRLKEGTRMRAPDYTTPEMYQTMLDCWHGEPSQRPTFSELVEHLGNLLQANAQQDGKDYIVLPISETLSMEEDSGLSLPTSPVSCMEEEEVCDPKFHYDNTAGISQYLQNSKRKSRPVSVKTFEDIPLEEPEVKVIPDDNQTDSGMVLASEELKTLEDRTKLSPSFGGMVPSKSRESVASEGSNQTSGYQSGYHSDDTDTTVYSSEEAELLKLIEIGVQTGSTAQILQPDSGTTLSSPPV

Molecule: COCc1c(C(C)C)nc(C(C)C)c(/C=C/[C@@H](O)C[C@@H](O)CC(=O)O)c1-c1ccc(F)cc1 [cerivastatin, reference compound]
- IC50 ([1]; read-out: Anti-Angio IC50): 0.089 µM
- IC50 ([1]; read-out: Anti-Angiogenesis): 0.0894 µM
- IC50 (HCT116; [10]): 0.24 µM
- IC50 (HCT116; HCT-116, read-out: Basal_Viability ATP HCT116): 0.24 µM
- IC50 (Colo320; COLO 320, 72 h, read-out: Colo320 viab. IC50): 1.9 µM
- IC50 (Colo320; COLO 320, read-out: Basal_Viability ATP Colo 320): 1.92 µM
- cytotoxicity IC50 relative to IC50 for inhibition of endothelial cord formation [2]: 2–3 fold
- IC50 (hKDR): > 20 µM
- EC50 ([3]; C2C12, read-out: Wnt pot. EC50): 19.9 µM
- IC50 (hp70S6K1 (RPS6KB1)): > 20 µM
- IC50 (hFLT3): > 20 µM
- IC50 [4, 11]: 0.053 µM
- IC50 ([4]; HCT-116, read-out: GSK3b inh pretreated_Viability ATP HCT116): 0.0529 µM
- IC50 (DLD-1; [12]): 2.5 µM
- IC50 (DLD-1; DLD-1, read-out: Basal_Viability ATP DLD-1): 2.51 µM
- EC50 (INS-1E cells [5]; [13]): > 10 µM
- EC50 (NCI-H716 cells; [14]): > 10 µM
- IC50 (hGSK3b): > 20 µM
- EC50 (HeLa cells): > 10 µM
- IC50 (hJAK2): > 20 µM
- fold potency difference KRAS mutant lines SW480 and HCT116 vs. KRAS wild-type lines Colo320 and SNU-C1 [6]: 5–10 fold
- IC50 (HT-29; HT-29, 72 h, read-out: HT-29 viab. IC50): 1.2 µM
- IC50 (HT-29; HT-29, read-out: Basal_Viability ATP HT-29): 1.21 µM
- IC50 (RKO; 72 h, read-out: RKO viab. IC50): 1 µM
- IC50 (RKO; read-out: Basal_Viability ATP RKO): 1.01 µM
- IC50 (SNU-C1; SNU-C1, 72 h, read-out: SNU-C1 viab. IC50): 1.9 µM
- IC50 (SNU-C1; SNU-C1, read-out: Basal_Viability ATP SNU-C1): 1.87 µM
- IC50 (SW480; [15]): 0.14 µM
- IC50 (SW480; SW480, read-out: Basal_Viability ATP SW480): 0.143 µM

Molecule: N[C@@H](Cc1ccc(N(CCCl)CCCl)cc1)C(=O)O [Melphalan]
- Adjusted Z-Score ([7]; AE BONE DISORDER): -3.0915
- # of Specific AE Occurrence With Drug A With Drug B ([7]; AE BONE DISORDER): 0
- # of Specific AE Occurrence With Drug A Without Drug B ([7]; AE BONE DISORDER): 731
- Adjusted Z-Score ([7]; AE OSTEOMYELITIS): -3.729
- # of Specific AE Occurrence With Drug A With Drug B ([7]; AE OSTEOMYELITIS): 9
- # of Specific AE Occurrence With Drug A Without Drug B ([7]; AE OSTEOMYELITIS): 479
- Adjusted Z-Score ([7]; AE OSTEONECROSIS OF JAW): -3.716
- # of Specific AE Occurrence With Drug A With Drug B ([7]; AE OSTEONECROSIS OF JAW): 17
- # of Specific AE Occurrence With Drug A Without Drug B ([7]; AE OSTEONECROSIS OF JAW): 557
- Adjusted Z-Score ([7]; AE OSTEONECROSIS): -3.771
- # of Specific AE Occurrence With Drug A With Drug B ([7]; AE OSTEONECROSIS): 1
- # of Specific AE Occurrence With Drug A Without Drug B ([7]; AE OSTEONECROSIS): 786
- IC50 (HCT116; HCT-116, basal, HCT116, read-out: Basal_Viability ATP HCT116): > 20 µM
- EC50 ([3]; C2C12, read-out: Wnt Pathway): > 10 µM
- IC50 ([4]; HCT-116, HCT116 pretreated with GSK3b inhibitor, read-out: GSK3b inh pretreated_Viability ATP HCT116): 15.4 µM
- IC50 (DLD-1; basal, DLD-1, read-out: Basal_Viability ATP DLD-1): > 20 µM
- EC50 (INS-1E cells [5]; Rattus norvegicus, INS-1E; read-out: Insulin Secretion): > 10 µM
- EC50 (NCI-H716 cells; NCI-H716, read-out: GLP 1 Secretion): > 10 µM
- EC50 (HeLa cells; S2 Table, 20 = no response at highest concentration): 5.36 µM
- IC50 (SW480; basal, SW480, read-out: Basal_Viability ATP SW480): > 20 µM

Molecule: CN(C)CCOC(c1ccccc1)c1ccc(Br)cc1 (stereo not shown) [NCGC00249891-01]
- Basal_Viability ATP HCT116 IC50/EC50 (HCT116; assay number 25, basal): > 20 µM
- Basal_Viability ATP Colo 320 IC50/EC50 (Colo320; assay number 27, basal): > 20 µM
- 0.1mMGluc_INS1E SecretionMod Act IC50/EC50 (INS-1E cells [8]): > 33.33 µM
- Basal_Viability ATP DLD-1 IC50/EC50 (DLD-1; assay number 23, basal): > 20 µM
- 5mMGluc_INS1E SecretionMod IC50/EC50 (INS-1E cells [5]; assay number 8; 5 mM glucose): 2.767 µM
- Hela CellCycMod PI 2N IC50/EC50 (HeLa cells; assay number 14, 2N): > 10 µM
- Hela CellCycMod PI S Phase IC50/EC50 (HeLa cells; assay number 15, S phase): > 10 µM
- Hela CellCycMod PI 4N IC50/EC50 (HeLa cells; assay number 16, 4N): > 10 µM
- Hela CellCycMod PI MI IC50/EC50 (HeLa cells; assay number 17, MI): > 10 µM
- Hela CellCycMod PI Cell Number IC50/EC50 (HeLa cells; assay number 18, cell number): > 10 µM
- 0.1mMGluc_INS1E FluxOR IC50/EC50 [9]: 10.9665 µM
- Basal_Viability ATP HT-29 IC50/EC50 (HT-29; assay number 28, basal): 17.0256 µM
- Basal_Viability ATP RKO IC50/EC50 (RKO; assay number 29, basal): > 20 µM
- Basal_Viability ATP SNU-C1 IC50/EC50 (SNU-C1; assay number 30, basal): 3.0987 µM
- Basal_Viability ATP SW480 IC50/EC50 (SW480; assay number 24, basal): > 20 µM

Molecule: COc1cccc2c1C(=O)c1c(O)c3c(c(O)c1C2=O)C[C@@](O)(C(=O)CO)C[C@@H]3O[C@H]1C[C@H](N)[C@H](O)[C@H](C)O1 [Doxorubicin]
- # of Specific AE Occurrence With Drug A With Drug B ([7]; AE BONE DISORDER): 49
- # of Specific AE Occurrence With Drug A Without Drug B ([7]; AE BONE DISORDER): 912

Molecule: CCCNCC(O)COc1ccccc1C(=O)CCc1ccccc1 (stereo not shown) [propafenone, reference compound]
- IC50 ([1]; read-out: Anti-Angio IC50): > 10 µM
- IC50 (HCT116; [10]): > 20 µM
- IC50 [4, 11]: > 20 µM
- IC50 (DLD-1; [12]): > 20 µM
- IC50 (SUR2/Kir6.2): 2.2 µM
- EC50 (INS-1E cells [5]; [13]): 4.9 µM
- EC50 (INS-1E cells [5]; Rattus norvegicus, INS-1E, read-out: Insulin Secretion): 4.92 µM
- EC50 (NCI-H716 cells; [14]): > 10 µM
- EC50 (HeLa cells): > 10 µM
- IC50 ([9]; Rattus norvegicus, INS-1E, read-out: K+ channel assay IC50): 5.4 µM
- IC50 (SW480; [15]): > 20 µM

Molecule: [H]/N=C(\N/C(=N/[H])NCCCCCCNC(=N)NC(=N)Nc1ccc(Cl)cc1)Nc1ccc(Cl)cc1 [Chlorhexidine]
- Adjusted Z-Score ([7]; AE OSTEONECROSIS): -2.347
- # of Specific AE Occurrence With Drug A With Drug B ([7]; AE OSTEONECROSIS): 31
- # of Specific AE Occurrence With Drug A Without Drug B ([7]; AE OSTEONECROSIS): 899

Molecule: Clc1ccc2c(c1)CCc1cccnc1C2=C1CCNCC1 [NCGC00159325-05]
- 0.1mMGluc_INS1E SecretionMod Act IC50/EC50 (INS-1E cells [8]): > 33.33 µM
- mSTC-1 GLP1 Secretion IC50/EC50 (STC-1 cell line): > 40 µM
- 5mMGluc_INS1E SecretionMod IC50/EC50 (INS-1E cells [5]; assay number 8; 5 mM glucose): 7.105 µM
- hNCI-H716 GLP1 Secretion IC50/EC50 (NCI-H716 cells; assay number 12): > 40 µM
- 0.1mMGluc_INS1E FluxOR IC50/EC50 [9]: > 33.3333 µM

B1: Pegfilgrastim: Drug A generic name in the FAERS table (protein, UniProt P09919 31-207, looked up)
Granulocyte …: TPLGPASSLPQSFLLKCLEQVRKIQGDGAALQEKLVSECATYKLCHPEELVLLGHSLGIPWAPLSSCPSQALQLAGCLSQLHSGLFLYQGLLQALEGISPELGPTLDTLQLDVADFATTIWQQMEELGMAPALQPTQGAMPAFASAFQRRAGGVLVASHLQSFLEVSYRVLRHLAQP
modifications: pegfilgrastim; PEG; N-terminal Met
- Adjusted Z-Score ([7]; AE BONE PAIN): -2.755
- # of Specific AE Occurrence With Drug A With Drug B ([7]; AE BONE PAIN): 13
- # of Specific AE Occurrence With Drug A Without Drug B ([7]; AE BONE PAIN): 641
